Reference: patent US7071293B1, “Alpha helical peptides with broad spectrum antimicrobial activity that are insensitive to salt” (priority 1999, dated 2006)
Where two headings read alike, the source gives them in different places. Ends that are not written are not given here.

Legend:
S. aureus 930918-3 = conditions: for MIC S. aureus [NaCl] High / MIC S. aureus [NaCl] Low: 930918-3, pH 7.4
B. cepacia ATCC 25416 = test: Two stage radial diffusion assay (MIC); format: cell-based; set-up: unit not given here; conditions: underlay 0 mM NaCl
MRSA ATCC 33591 = conditions: for MIC MRSA [NaCl] High / MIC MRSA [NaCl] Low: ATCC 33591, pH 7.4
N. gonorrhoeae = test: Two stage radial diffusion assay (MIC); format: cell-based; set-up: unit not given here; conditions: done only at 100 mM NaCl; for N. gonorrhoeae F 62 (serum-sensitive): strain F 62 (serum-sensitive); for N. gonorrhoeae FA 19 (serum-resistant): strain FA 19 (serum-resistant)
E. coli ML-35p = conditions: for E. coli ML-35p MIC, 0 mM NaCl: underlay 0 mM NaCl; for MIC E. coli [NaCl] High: high salt underlay (10 mM sodium phosphate buffer +100 mM NaCl, pH 7.4); for MIC E. coli [NaCl] High / MIC E. coli [NaCl] Low: Table 13; for MIC E. coli [NaCl] Low: low salt underlay (10 mM sodium phosphate buffer, pH 7.4)
L. monocytogenes EGD = test: Two stage radial diffusion assay (MIC); format: cell-based; set-up: unit not given here; conditions: underlay 0 mM NaCl
P. aeruginosa MR 3007 = conditions: for MIC P. aeruginosa [NaCl] High / MIC P. aeruginosa [NaCl] Low: MR 3007, pH 7.4
E. coli DH5α = conditions: for EC50: DH5α; for EC50 E. coli DH5α: ionic strength 25 mM, avg ± sem
P. aeruginosa PAO1 [1] = conditions: avg ± sem
P. aeruginosa PAO1 [2] = test: Relative time for killing (luminescence measured at intervals); format: cell-based; conditions: peptide at ten times its EC50 (SMAP29X-18D 15.7 X, SMAP29X-14A 17.4 X), 25 mM ionic strength
E. coli DH-5α = conditions: DH-5α

Substance	S. aureus 930918-3 MIC, 0 mM NaCl (S. aureus 930918-3; 930918-3) [µg/mL]	B. cepacia ATCC 25416 in underlays of low, normal and high salinity, 0 mM NaCl (B. cepacia ATCC 25416)	MRSA ATCC 33591 MIC, 0 mM NaCl (MRSA ATCC 33591; ATCC 33591) [µg/mL]	N. gonorrhoeae F 62 (serum-sensitive) (N. gonorrhoeae)	N. gonorrhoeae FA 19 (serum-resistant) (N. gonorrhoeae)	E. coli ML-35p MIC, 0 mM NaCl (E. coli ML-35p; Table 15) [µg/mL]	L. monocytogenes in underlays of low, normal and high salinity, 0 mM NaCl (L. monocytogenes EGD)	P. aeruginosa MR-3007 MIC, 0 mM NaCl (P. aeruginosa MR 3007; MR 3007) [µg/mL]	further results
KRLRKFRNKIKEKLKKIG [Peptide 20]	9.7	>250	14.9	>250	>250	2.3	2.3	2.9	
LRKFRNKIKEKLKKIGQKI [CAP18-19]									EC50 (E. coli DH5α): 0.96 ± 0.13 µM; EC50 E. coli DH5α (E. coli DH5α): 2.27 ± 0.30 µg/mL; MIC S. aureus [NaCl] High (S. aureus 930918-3): >79.1 µg/mL; MIC S. aureus [NaCl] Low (S. aureus 930918-3): 6.0 µg/mL; MIC MRSA [NaCl] High (MRSA ATCC 33591): >79.1 µg/mL; MIC MRSA [NaCl] Low (MRSA ATCC 33591): 4.5 µg/mL; EC50 P. aeruginosa PAO1 (P. aeruginosa PAO1 [1]; ionic strength 25 mM): 1.65 ± 0.27 µg/mL; EC50 P. aeruginosa PAO1 (P. aeruginosa PAO1 [1]; ionic strength 175 mM): 3.06 ± 0.36 µg/mL; MIC E. coli [NaCl] High (E. coli ML-35p): 18.2 µg/mL; MIC E. coli [NaCl] Low (E. coli ML-35p): 0.4 µg/mL; Half-time of Killing (min. avg. ± sem) (P. aeruginosa PAO1 [2]): 8.0 ± 1.6 min; MIC P. aeruginosa [NaCl] High (P. aeruginosa MR 3007): 26.7 µg/mL; MIC P. aeruginosa [NaCl] Low (P. aeruginosa MR 3007): 1.0 µg/mL
LRKFRNKIKEKLKKIGQKI [Peptide 22]	6.0	>250	4.5	>79.1	>250	0.1	5.9	0.7	
LRKFRNKIKEKLKKIGQKIQG [Peptide 23]	16.3	>250	10.3	>79.1	>250	0.2	5.5	1.5	
LRRIIRKIIHIIKK-NH2 [Peptide 11]	1.38 ± 0.21	>79.1	4.42 ± 1.73	0.8	0.9	0.63 ± 0.05	0.7	0.92 ± 0.06	S. aureus 930918-3 MIC, 175 mM NaCl (S. aureus 930918-3; 930918-3): 16.4 ± 5.1 µg/mL; MRSA ATCC 33591 MIC, 175 mM NaCl (MRSA ATCC 33591; ATCC 33591): >79.1 µg/mL; E. coli ML-35p MIC, 175 mM NaCl (E. coli ML-35p; underlay 175 mM NaCl, Table 15): 49.2 ± 15.2 µg/mL; E. coli DH-5α MIC, 0 mM NaCl (E. coli DH-5α): 0.85 ± 0.04 µg/mL; E. coli DH-5α MIC, 175 mM NaCl (E. coli DH-5α): 5.92 ± 1.02 µg/mL; P. aeruginosa MR-3007 MIC, 175 mM NaCl (P. aeruginosa MR 3007; MR 3007): 20.1 ± 6.9 µg/mL; P. aeruginosa PA-01 MIC, 0 mM NaCl (P. aeruginosa PA-01): 0.96 ± 0.05 µg/mL; P. aeruginosa PA-01 MIC, 175 mM NaCl (P. aeruginosa PA-01): 6.51 ± 1.02 µg/mL
RKFRNKIKEKLKKIG [Peptide 24]	19.5	>250	>250	>250	>250	9.7	24.1	5.1	
RKRLRKFRNKIKEKLKKIGQKI [CAP18-22]									EC50 (E. coli DH5α): 0.52 ± 0.16 µM; EC50 E. coli DH5α (E. coli DH5α): 1.47 ± 0.44 µg/mL; MIC S. aureus [NaCl] High (S. aureus 930918-3): >79.1 µg/mL; MIC S. aureus [NaCl] Low (S. aureus 930918-3): 7.9 µg/mL; MIC MRSA [NaCl] High (MRSA ATCC 33591): >79.1 µg/mL; MIC MRSA [NaCl] Low (MRSA ATCC 33591): 8.1 µg/mL; EC50 P. aeruginosa PAO1 (P. aeruginosa PAO1 [1]; ionic strength 25 mM): 1.38 ± 0.49 µg/mL; EC50 P. aeruginosa PAO1 (P. aeruginosa PAO1 [1]; ionic strength 175 mM): 0.88 ± 0.12 µg/mL; MIC E. coli [NaCl] High (E. coli ML-35p): 1.7 µg/mL; MIC E. coli [NaCl] Low (E. coli ML-35p): 0.1 µg/mL; Half-time of Killing (min. avg. ± sem) (P. aeruginosa PAO1 [2]): 9.8 ± 2.5 min; MIC P. aeruginosa [NaCl] High (P. aeruginosa MR 3007): 7.6 µg/mL; MIC P. aeruginosa [NaCl] Low (P. aeruginosa MR 3007): 0.7 µg/mL
RKRLRKFRNKIKEKLKKIGQKI [Peptide 21]	7.9	>250	8.1	22.0	>250	0.2	7.0	0.2	
